Reference: patent US20220175682A1, “Siremadlin Succinate” (Novartis AG, priority 2019, published 2022)

Experiments:
Type in all cases: physicochemical
[1] = FT4 powder rheometer powder characterization (8-parameter model); set-up: MPS-15: unit not given here; conditions: for sBFE (Specific Basic Flow Energy): FT4, Group 1, 25 mm_1C_Split_Rep+VFR_R01; for sBFE (Specific Basic Flow Energy) / SI (Stability Index) / MPS-15 (major Principal Stress @ 15 kPa) / FF-15 (Flow function @ 15 kPa) / CBD-15 (Consolidated Bulk Density @ 15 kPa) / CPS (Compressibility) / WFA (Wall Friction Angle): reference powders; for SI (Stability Index) / SI / sBFE: FT4, Group 1; for SI (Stability Index) / FF-15 (Flow function @ 15 kPa): dimensionless; for MPS-15 (major Principal Stress @ 15 kPa): FT4, Group 2, 25 mm_Shear_15 kPa; for FF-15 (Flow function @ 15 kPa) / CBD-15 (Consolidated Bulk Density @ 15 kPa): FT4, Group 2, shear cell; for CPS (Compressibility): FT4, Group 3, 25 mm_Compressibility_1-15 kPa; for WFA (Wall Friction Angle): FT4, Group 4, 25 mm_Wall Friction_30 kPa; for SI / sBFE / CBD-15 / FF-15 / MPS-15 / CPS / WFA: HDM201-BBA batches; for CBD-15 / FF-15 / MPS-15: FT4, Group 2; for CPS: FT4, Group 3; for WFA: FT4, Group 4
Experimental: A standard FT4 powder rheometer offers at least 6 powder characterization methods (per measurement cylinder diameter). Those selected for analysis are
25 mm_1C_Split_Rep+VFR_R01;
25 mm_Compressibility_1-15 kPa;
25 mm_Wall Friction_30 kPa.
Each characterization method produces several kind of response parameters (default or manually selectable). A set of complete powder characterizations (at least 22 response parameters per row) were measured for more than 350 different powders and more than 60 different compounds using a standard FT4 powder rheometer and compiled in a database. The various parameters were correlated to the respective filling behavior in order to determine a set of parameters and parameter ranges which is capable of distinguishing and predicting filling behavior of powders.
sBFE: Specific Basic Flow Energy (mJ/g): obtained from BFE (obtained from standard FT4 test platform) divided by the split mass of the sample.
SI: Stability Index, standard variable, dimensionless.
SE: Specific Energy (mJ/g), standard variable
MPS @ 15 kPa: major Principal Stress, standard variable
FF @ 15 kPa: Flow function (dimensionless), from shear cell, standard variable
CBD @ 15 kPa: Consolidated Bulk Density (g/mL), standard variable (from shear cell)
CPS: Compressibility (%), standard variable
WFA: Wall Friction Angle (degree°), standard variable.

[2] = Particle size distribution by laser light diffraction (LLD); conditions: laser light diffraction, pin-milled HDM201-BBA batches
From the text: Values are given in micrometer, measurements done by laser light diffraction (LLD).

[3] = Crystal/particle shape, size and bulk density of reference API powders
From the text: NBU928 is a fumarate salt with a challenging crystallization process. The resulting particles typically have an elongated aspect ratio, crystals are lath shaped up to 400 μm long with strong agglomeration tendency. Such kind of crystal shape give a resulting powder bulk which is not directly processable in any capsule filler equipment. Therefore the API powder was subjected to a Particle Engineering treatment to selectively grow the shot side of the crystal then it was milled down through a pin mill equipment obtaining a quite regular fragmentation, leading to smaller particles with more steady aspect ratio, free of agglomeration, with an average diameter (X50) of about 25 μm.
CDZ173 is a mono-phosphate salt compound. It is characterized by needle shaped crystals with aspect ratio >10, agglomerated/fused rod-like crystals, very low bulk density (always <0.2 g/mL, very often <0.12 g/mL). It is here reported in two different variants (milled and un-milled).

For CN(C)C(=O)c1cc2cnc(Nc3ccc(N4CCNCC4)cn3)nc2n1C1CCCC1 [1. LEE011, reference compound], the “sBFE (Specific Basic Flow Energy)” value [1] was 38 mJ/g, the “SI (Stability Index)” value [1] was 0.9 and the MPS-15 (major Principal Stress @ 15 kPa) [1] was 42 kPa. For the same compound, the “FF-15 (Flow function @ 15 kPa)” value [1] was 5.8, the “CBD-15 (Consolidated Bulk Density @ 15 kPa)” value [1] was 0.6 g/mL and the “CPS (Compressibility)” value [1] was 26%. The “WFA (Wall Friction Angle)” value [1] was 40 °.
In the case of OC[C@H]1O[C@@H](O[C@H]2[C@H](O)[C@@H](O)[C@@H](O)O[C@@H]2CO)[C@H](O)[C@@H](O)[C@H]1O [4. Lactose 125M, reference compound], the “sBFE (Specific Basic Flow Energy)” value [1] is reported as 16 mJ/g, the “CPS (Compressibility)” value [1] is reported as 13% and the “WFA (Wall Friction Angle)” value [1] is reported as 27 °.
For CC1(N)CCN(c2cccnc2NC(=O)c2nc(-c3ncccc3C(F)(F)F)cnc2N)CC1 [5. LXS196, reference compound], the “sBFE (Specific Basic Flow Energy)” value [1] was 26 mJ/g, the “SI (Stability Index)” value [1] was 1.1 and the MPS-15 (major Principal Stress @ 15 kPa) [1] was 27 kPa. The “FF-15 (Flow function @ 15 kPa)” value [1] was 15, the “CBD-15 (Consolidated Bulk Density @ 15 kPa)” value [1] was 0.7 g/mL and the “CPS (Compressibility)” value [1] was 11%. For the same compound, the “WFA (Wall Friction Angle)” value [1] was 29 °.
With CCC(=O)N1CC[C@H](Nc2ncnc3c2CN(c2cnc(OC)c(C(F)(F)F)c2)CC3)C1 [6. CDZ173, reference compound] the “sBFE (Specific Basic Flow Energy)” value [1] was 29 mJ/g, the “SI (Stability Index)” value [1] was 1.5 and the MPS-15 (major Principal Stress @ 15 kPa) [1] was 50 kPa. The “FF-15 (Flow function @ 15 kPa)” value [1] was 1.4, the “CBD-15 (Consolidated Bulk Density @ 15 kPa)” value [1] was 0.26 g/mL and the “CPS (Compressibility)” value [1] was 43%. For the same compound, the “WFA (Wall Friction Angle)” value [1] was 50 °.
In the case of CCC(=O)N1CC[C@H](Nc2ncnc3c2CN(c2cnc(OC)c(C(F)(F)F)c2)CC3)C1 [7. CDZ173, reference compound], the “sBFE (Specific Basic Flow Energy)” value [1] is reported as 82 mJ/g, the “SI (Stability Index)” value [1] is reported as 1.1 and the MPS-15 (major Principal Stress @ 15 kPa) [1] is reported as 9.6 kPa. The “FF-15 (Flow function @ 15 kPa)” value [1] was 5, the “CBD-15 (Consolidated Bulk Density @ 15 kPa)” value [1] was 0.2 g/mL and the “CPS (Compressibility)” value [1] was 56%. The “WFA (Wall Friction Angle)” value [1] was 37 °.
COc1ncc(-c2nc3c(n2C(C)C)[C@H](c2ccc(Cl)cc2)N(c2cc(Cl)cn(C)c2=O)C3=O)c(OC)n1.O=C(O)CCC(=O)O [Batch A1] showed an SI ([1]; listed as A1) of 1.07, a sBFE ([1]; listed as A1) of 6 mJ/g and a CBD-15 ([1]; listed as A1) of 0.53 g/mL. For the same compound, the FF-15 ([1]; listed as A1) was 2.5, the MPS-15 ([1]; listed as A1) was 32 and the CPS ([1]; listed as A1) was 43%. The WFA ([1]; listed as A1) was 35 °, the X10 ([2]; listed as A1) was 1 micrometer and the X50 ([2]; listed as A1) was 5 micrometer. It also gave an X90 ([2]; listed as A1) of 14 micrometer.
With COc1ncc(-c2nc3c(n2C(C)C)[C@H](c2ccc(Cl)cc2)N(c2cc(Cl)cn(C)c2=O)C3=O)c(OC)n1.O=C(O)CCC(=O)O [Batch A2] the SI ([1]; listed as A2) was 1.11, the sBFE ([1]; listed as A2) was 9 mJ/g and the CBD-15 ([1]; listed as A2) was 0.68 g/mL. It also gave an FF-15 ([1]; listed as A2) of 5.5, an MPS-15 ([1]; listed as A2) of 29 and a CPS ([1]; listed as A2) of 32%. It also gave a WFA ([1]; listed as A2) of 34 °, an X10 ([2]; listed as A2) of 4 micrometer and an X50 ([2]; listed as A2) of 28 micrometer. The X90 ([2]; listed as A2) was 60 micrometer.
For COc1ncc(-c2nc3c(n2C(C)C)[C@H](c2ccc(Cl)cc2)N(c2cc(Cl)cn(C)c2=O)C3=O)c(OC)n1.O=C(O)CCC(=O)O [Batch A3], the SI ([1]; listed as A3) was 1.12, the sBFE ([1]; listed as A3) was 20 mJ/g and the CBD-15 ([1]; listed as A3) was 0.69 g/mL. It also gave an FF-15 ([1]; listed as A3) of 9.4, an MPS-15 ([1]; listed as A3) of 29 and a CPS ([1]; listed as A3) of 15%. It also gave a WFA ([1]; listed as A3) of 34 °, an X10 ([2]; listed as A3) of 9 micrometer and an X50 ([2]; listed as A3) of 45 micrometer. The X90 ([2]; listed as A3) was 95 micrometer.
For COc1ncc(-c2nc3c(n2C(C)C)[C@H](c2ccc(Cl)cc2)N(c2cc(Cl)cn(C)c2=O)C3=O)c(OC)n1.O=C(O)CCC(=O)O [Batch B1], the SI ([1]; listed as B1) was 1.14, the sBFE ([1]; listed as B1) was 6 mJ/g and the CBD-15 ([1]; listed as B1) was 0.64 g/mL. It also gave an FF-15 ([1]; listed as B1) of 3.8, an MPS-15 ([1]; listed as B1) of 29 and a CPS ([1]; listed as B1) of 31%. The WFA ([1]; listed as B1) was 34 °, the X10 ([2]; listed as B1) was 3 micrometer and the X50 ([2]; listed as B1) was 16 micrometer. The X90 ([2]; listed as B1) was 50 micrometer.
COc1ncc(-c2nc3c(n2C(C)C)[C@H](c2ccc(Cl)cc2)N(c2cc(Cl)cn(C)c2=O)C3=O)c(OC)n1.O=C(O)CCC(=O)O [Batch B2] showed an SI ([1]; listed as B2) of 1.01, a sBFE ([1]; listed as B2) of 8 mJ/g and a CBD-15 ([1]; listed as B2) of 0.65 g/mL. It also gave an FF-15 ([1]; listed as B2) of 3.8, an MPS-15 ([1]; listed as B2) of 28 and a CPS ([1]; listed as B2) of 38%. For the same compound, the WFA ([1]; listed as B2) was 35 °, the X10 ([2]; listed as B2) was 4 micrometer and the X50 ([2]; listed as B2) was 21 micrometer. The X90 ([2]; listed as B2) was 71 micrometer.
For COc1ncc(-c2nc3c(n2C(C)C)[C@H](c2ccc(Cl)cc2)N(c2cc(Cl)cn(C)c2=O)C3=O)c(OC)n1.O=C(O)CCC(=O)O [Batch B3], the SI ([1]; listed as B3) was 1.11, the sBFE ([1]; listed as B3) was 9 mJ/g and the CBD-15 ([1]; listed as B3) was 0.70 g/mL. It also gave an FF-15 ([1]; listed as B3) of 5.3, an MPS-15 ([1]; listed as B3) of 29 and a CPS ([1]; listed as B3) of 26%. It also gave a WFA ([1]; listed as B3) of 35 °, an X10 ([2]; listed as B3) of 5 micrometer and an X50 ([2]; listed as B3) of 26 micrometer. It also gave an X90 ([2]; listed as B3) of 87 micrometer.
Work on COc1ncc(-c2nc3c(n2C(C)C)[C@H](c2ccc(Cl)cc2)N(c2cc(Cl)cn(C)c2=O)C3=O)c(OC)n1.O=C(O)CCC(=O)O [Batch C1] yielded an SI ([1]; listed as C1) of 1.15, a sBFE ([1]; listed as C1) of 33 mJ/g and a CBD-15 ([1]; listed as C1) of 0.68 g/mL. For the same compound, the FF-15 ([1]; listed as C1) was 9.0, the MPS-15 ([1]; listed as C1) was 31 and the CPS ([1]; listed as C1) was 14%. It also gave a WFA ([1]; listed as C1) of 34 °, an X10 ([2]; listed as C1) of 21 micrometer and an X50 ([2]; listed as C1) of 69 micrometer. The X90 ([2]; listed as C1) was 163 micrometer.
With COc1ncc(-c2nc3c(n2C(C)C)[C@H](c2ccc(Cl)cc2)N(c2cc(Cl)cn(C)c2=O)C3=O)c(OC)n1.O=C(O)CCC(=O)O [Batch C2] the SI ([1]; listed as C2) was 1.01, the sBFE ([1]; listed as C2) was 12 mJ/g and the CBD-15 ([1]; listed as C2) was 0.70 g/mL. For the same compound, the FF-15 ([1]; listed as C2) was 6.4, the MPS-15 ([1]; listed as C2) was 29 and the CPS ([1]; listed as C2) was 25%. It also gave a WFA ([1]; listed as C2) of 35 °, an X10 ([2]; listed as C2) of 6 micrometer and an X50 ([2]; listed as C2) of 35 micrometer. For the same compound, the X90 ([2]; listed as C2) was 83 micrometer.
COc1ncc(-c2nc3c(n2C(C)C)[C@H](c2ccc(Cl)cc2)N(c2cc(Cl)cn(C)c2=O)C3=O)c(OC)n1.O=C(O)CCC(=O)O [Batch C3] gave an SI ([1]; listed as C3) of 1.03, a sBFE ([1]; listed as C3) of 8 mJ/g and a CBD-15 ([1]; listed as C3) of 0.62 g/mL. It also gave an FF-15 ([1]; listed as C3) of 3.7, an MPS-15 ([1]; listed as C3) of 29 and a CPS ([1]; listed as C3) of 36%. The X10 ([2]; listed as C3) was 3 micrometer, the X50 ([2]; listed as C3) was 19 micrometer and the X90 ([2]; listed as C3) was 58 micrometer.
With CCC(=O)N1CC[C@H](Nc2ncnc3c2CN(c2cnc(OC)c(C(F)(F)F)c2)CC3)C1.O=P(O)(O)O [CDZ173] the bulk density ([3]; always) was under 0.2 g/mL, the “aspect ratio of crystals” value ([3]; needle shaped crystals) was over 10 and the bulk density ([3]; very often) was under 0.12 g/mL.
